From ChEMBL document CHEMBL3407329, “Looking for new antileishmanial derivatives in 8-nitroquinolin-2(1H)-one series” (Eur J Med Chem, 2015) come the findings set out here.

pIC50: −log10 of the molar value.

In data set [1] the test system is Leishmania donovani. As to the kind of experiment: Antileishmanial activity against Leishmania donovani MHOM/IN/00/DEVI promastigotes assessed as reduction in parasite growth incubated for 72 hrs by MTT assay. Format: functional, organism-based. A general note: Tetrazolium assays rely on reduction of a dye to a coloured formazan, in cell work by metabolically active cells.

Data set [2] in a line: Cytotoxicity against human HepG2 cells assessed as reduction in cell viability incubated for 72 hrs by MTT assay. Format: cell-based.
Data set [3] in a line: Selectivity index, ratio of CC50 for human HepG2 cells to IC50 for Leishmania donovani MHOM/IN/00/DEVI promastigotes. Format: functional.
Data set [4] is described as follows: Cytotoxicity against human THP1 cells assessed as reduction in cell viability incubated for 72 hrs by MTT assay. The format is cell-based. As to conditions: THP-1 cells.
Data set [5] concerns Leishmania donovani. As to the kind of experiment: Antileishmanial activity against Leishmania donovani MHOM/IN/00/DEVI intracellular amastigotes infected in human THP1 cells assessed as reduction in parasite-infected macrophages incubated for 120 hrs by Giemsa staining based microscopy. Format: functional, organism-based. As to conditions: THP-1, 120 h.

By pIC50 is commonly meant −log10 of the IC50, conventionally taken in molar units. Usually CC50 stands for the concentration giving 50% cytotoxicity. Regarding `O=c1cc(Sc2ccccc2Cl)c2cccc([N+](=O)[O-])c2[nH]1`, the pIC50 in the data set on Leishmania donovani [1] is 5.46. Also, the 50% cytotoxic concentration (CC50) at 72 h in data set [2] is above 1.25 µM. Further, the “Ratio CC50/IC50” value in data set [3] is reported as above 0.4.
Turning to `Nc1cc(=O)[nH]c2c([N+](=O)[O-])cccc12`, in the data set on Leishmania donovani [1], the pIC50 was below 4.30. For the same compound, the 50% cytotoxic concentration (CC50) at 72 h in data set [2] is above 125 µM.
On to `O=c1cc(N2CCOCC2)c2cccc([N+](=O)[O-])c2[nH]1`, for which the negative-log IC50 (pIC50) with Leishmania donovani [1] is 4.38. For the same compound, the CC50 at 72 h in data set [2] was 86.2 µM.
With `O=c1cc(N2CCNCC2)c2cccc([N+](=O)[O-])c2[nH]1`, in the data set with Leishmania donovani [1], the negative logarithm of the IC50 (pIC50) is below 4.30. The cytotoxic concentration (CC50) at 72 h in data set [2] was 2.4 µM.
Consider `CCCCNc1cc(=O)[nH]c2c([N+](=O)[O-])cccc12`, for which the pIC50 in the data set on Leishmania donovani [1] is 4.67. The CC50 at 72 h in data set [2] was determined as 12.2 µM.
For the compound `CC(C)(C)OC(=O)NCCOCCOCCNc1cc(=O)[nH]c2c([N+](=O)[O-])cccc12`, the negative logarithm of the IC50 (pIC50) with Leishmania donovani [1] was below 4.30. Moreover, the CC50 at 72 h in data set [2] turned out to be 34.8 µM.
`NCCOCCOCCNc1cc(=O)[nH]c2c([N+](=O)[O-])cccc12`: the negative logarithm of the IC50 (pIC50) with Leishmania donovani [1] was below 4.30. Also, the CC50 at 72 h in data set [2] worked out at 123 µM.
Turning to `O=c1cc(Nc2ccccc2)c2cccc([N+](=O)[O-])c2[nH]1`, the negative logarithm of the IC50 (pIC50) with Leishmania donovani [1] is below 4.30. The 50% cytotoxic concentration (CC50) at 72 h in data set [2] was 1.8 µM.
In the case of `O=c1cc(Sc2ccccc2)c2cccc([N+](=O)[O-])c2[nH]1`, the negative logarithm of the IC50 (pIC50) with Leishmania donovani [1] is 5.03. In addition, the 50% cytotoxic concentration (CC50) at 72 h in data set [2] is above 12.5 µM. The “Ratio CC50/IC50” value in data set [3] was above 1.3.
`O=c1cc(Oc2ccccc2)c2cccc([N+](=O)[O-])c2[nH]1`: the pIC50 in the data set with Leishmania donovani [1] was 4.85. For the same compound, in data set [2], the CC50 at 72 h is above 12.5 µM. In data set [3], the “Ratio CC50/IC50” value was above 0.9.
Take `COc1ccccc1Sc1cc(=O)[nH]c2c([N+](=O)[O-])cccc12`: in the data set on Leishmania donovani [1], the negative logarithm of the IC50 (pIC50) was below 5.00.
In the case of `COc1cccc(Sc2cc(=O)[nH]c3c([N+](=O)[O-])cccc23)c1`, the pIC50 with Leishmania donovani [1] was below 5.00.
Consider `COc1ccc(Sc2cc(=O)[nH]c3c([N+](=O)[O-])cccc23)cc1`, for which the negative-log IC50 (pIC50) in the data set with Leishmania donovani [1] is below 5.00.
For `O=c1cc(Sc2ccccc2C(F)(F)F)c2cccc([N+](=O)[O-])c2[nH]1`, in the data set on Leishmania donovani [1], the negative logarithm of the IC50 (pIC50) is 5.46. Also, the cytotoxic concentration (CC50) at 72 h in data set [2] was above 7.8 µM. The “Ratio CC50/IC50” value in data set [3] is reported as above 2.22.
`O=c1cc(Sc2cccc(C(F)(F)F)c2)c2cccc([N+](=O)[O-])c2[nH]1`: the pIC50 with Leishmania donovani [1] was below 5.00.
For `O=c1cc(Sc2ccc(C(F)(F)F)cc2)c2cccc([N+](=O)[O-])c2[nH]1`, the cytotoxic concentration (CC50) at 72 h in data set [4] and in data set [2] was above 12.5 µM in each case. For the same compound, the pIC50 in the data set on Leishmania donovani [1] was 5.42; with Leishmania donovani [5], below 4.90. In addition, in data set [3], the “Ratio CC50/IC50” value is above 3.3.
With `O=c1cc(Sc2cccc(Cl)c2)c2cccc([N+](=O)[O-])c2[nH]1`, in the data set on Leishmania donovani [1], the pIC50 is below 5.00.
With `O=c1cc(Sc2ccc(Cl)cc2)c2cccc([N+](=O)[O-])c2[nH]1`, the negative logarithm of the IC50 (pIC50) in the data set with Leishmania donovani [1] was below 5.00.
As to `O=c1cc(Sc2ccc(Cl)cc2Cl)c2cccc([N+](=O)[O-])c2[nH]1`, in the data set on Leishmania donovani [1], the negative-log IC50 (pIC50) was 5.42. The half-maximal cytotoxic concentration (CC50) at 72 h in data set [2] was above 7.8 µM. Moreover, the “Ratio CC50/IC50” value in data set [3] is above 2.1.
Consider `O=c1cc(Sc2ccc(Br)cc2)c2cccc([N+](=O)[O-])c2[nH]1`, for which, in the data set with Leishmania donovani [1], the negative logarithm of the IC50 (pIC50) is 5.38. The CC50 at 72 h in data set [2] was above 3.9 µM. Besides, the “Ratio CC50/IC50” value in data set [3] is given as above 0.9.
For the compound `O=c1cc(Sc2ccccc2F)c2cccc([N+](=O)[O-])c2[nH]1`, in the data set with Leishmania donovani [1], the pIC50 is below 5.00.
Turning to `O=c1cc(Sc2cccc(F)c2)c2cccc([N+](=O)[O-])c2[nH]1`, the negative-log IC50 (pIC50) with Leishmania donovani [1] was below 5.00.
In the case of `O=c1cc(Sc2ccc(F)cc2)c2cccc([N+](=O)[O-])c2[nH]1`, the pIC50 in the data set with Leishmania donovani [1] was below 5.00.
For `Cc1ccccc1Sc1cc(=O)[nH]c2c([N+](=O)[O-])cccc12`, in the data set with Leishmania donovani [1], the pIC50 is below 5.00.
In the case of `Cc1ccc(Sc2cc(=O)[nH]c3c([N+](=O)[O-])cccc23)cc1`, in the data set on Leishmania donovani [1], the negative-log IC50 (pIC50) is below 5.00.
On the same count and under the same terms, then `Nc1ccccc1Sc1cc(=O)[nH]c2c([N+](=O)[O-])cccc12`, with below 5.00; and `COc1ccccc1Oc1cc(=O)[nH]c2c([N+](=O)[O-])cccc12`, with below 5.00; and `COc1cccc(Oc2cc(=O)[nH]c3c([N+](=O)[O-])cccc23)c1`, with below 5.00.
Take `COc1ccc(Oc2cc(=O)[nH]c3c([N+](=O)[O-])cccc23)cc1`: in the data set with Leishmania donovani [1], the pIC50 is below 5.00.
`O=c1cc(Oc2ccccc2C(F)(F)F)c2cccc([N+](=O)[O-])c2[nH]1`: the negative-log IC50 (pIC50) with Leishmania donovani [1] is 5.00. In addition, the CC50 at 72 h in data set [2] was above 15.6 µM. In addition, in data set [3], the “Ratio CC50/IC50” value is on record as above 1.6.
`O=c1cc(Oc2cccc(C(F)(F)F)c2)c2cccc([N+](=O)[O-])c2[nH]1`: the pIC50 in the data set with Leishmania donovani [1] was below 5.00. For the same compound, the CC50 at 72 h in data set [2] was above 7.8 µM. Besides, in data set [3], the “Ratio CC50/IC50” value was above 0.7.
In the case of `O=c1cc(Oc2ccc(C(F)(F)F)cc2)c2cccc([N+](=O)[O-])c2[nH]1`, the negative-log IC50 (pIC50) in the data set on Leishmania donovani [1] was 5.08. Moreover, in data set [2], the CC50 at 72 h is above 7.8 µM. For the same compound, the “Ratio CC50/IC50” value in data set [3] is listed as above 0.9.
Regarding `O=c1cc(Oc2ccccc2Cl)c2cccc([N+](=O)[O-])c2[nH]1`, the negative logarithm of the IC50 (pIC50) with Leishmania donovani [1] was below 5.00.
Still for that read-out and setting: then `O=c1cc(Oc2cccc(Cl)c2)c2cccc([N+](=O)[O-])c2[nH]1`, with below 5.00.
As for `O=c1cc(Oc2ccc(Cl)cc2)c2cccc([N+](=O)[O-])c2[nH]1`, the pIC50 with Leishmania donovani [1] is 5.43. Further, in data set [2], the cytotoxic concentration (CC50) at 72 h is above 3.9 µM. The “Ratio CC50/IC50” value in data set [3] is listed as above 1.1.
As to `O=c1cc(Oc2ccccc2Br)c2cccc([N+](=O)[O-])c2[nH]1`, the pIC50 with Leishmania donovani [1] is 5.09. Also, in data set [2], the half-maximal cytotoxic concentration (CC50) at 72 h is above 7.8 µM. In addition, the “Ratio CC50/IC50” value in data set [3] is reported as above 0.96.
Regarding `O=c1cc(Oc2cccc(Br)c2)c2cccc([N+](=O)[O-])c2[nH]1`, in the data set on Leishmania donovani [1], the negative-log IC50 (pIC50) was below 5.00.
On to `O=c1cc(Oc2ccc(Br)cc2)c2cccc([N+](=O)[O-])c2[nH]1`, for which, in the data set with Leishmania donovani [1], the pIC50 was below 5.30.
In the case of `O=c1cc(Oc2ccccc2F)c2cccc([N+](=O)[O-])c2[nH]1`, in the data set on Leishmania donovani [1], the pIC50 is below 5.00.
The same measure, in the same setting: the same measure for `O=c1cc(Oc2cccc(F)c2)c2cccc([N+](=O)[O-])c2[nH]1`: below 5.00; for `Cc1ccccc1Oc1cc(=O)[nH]c2c([N+](=O)[O-])cccc12`: below 5.00.
Still for that read-out and setting: the same measure for `Cc1cccc(Oc2cc(=O)[nH]c3c([N+](=O)[O-])cccc23)c1`: below 5.00.
Turning to `Cc1ccc(Oc2cc(=O)[nH]c3c([N+](=O)[O-])cccc23)cc1`, the CC50 at 72 h was above 12.5 µM in data set [4] and above 25 µM in data set [2]. Besides, the figures for the pIC50 with Leishmania donovani [1] and in the data set with Leishmania donovani [5] were 5.22 and below 4.90, respectively. In data set [3], the “Ratio CC50/IC50” value was above 4.2.
As to `Cc1cc(Oc2cc(=O)[nH]c3c([N+](=O)[O-])cccc23)ccc1Cl`, in the data set with Leishmania donovani [1], the negative-log IC50 (pIC50) is 5.22. Moreover, the cytotoxic concentration (CC50) at 72 h in data set [2] was above 15.6 µM. For the same compound, the “Ratio CC50/IC50” value in data set [3] is above 2.6.
`COc1cccc2c1C(=O)c1c(O)c3c(c(O)c1C2=O)C[C@@](O)(C(=O)CO)C[C@@H]3O[C@H]1C[C@H](N)[C@H](O)[C@H](C)O1` [DOXORUBICIN]: the CC50 at 72 h in data set [4] turned out to be 0.008 µM.
`N=C(N)c1ccc(OCCCCCOc2ccc(C(=N)N)cc2)cc1` [PENTAMIDINE]: the CC50 at 72 h in data set [4] was found to be 31.2 µM. Moreover, in the data set with Leishmania donovani [5], the negative-log IC50 (pIC50) was below 4.70. Moreover, the “Ratio CC50/IC50” value in data set [3] came to 0.4.
